In PubChem BioAssay AID463204 (Broad Institute, 2010):
Active and inactive are the calls of the source.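 The calls were made as follows: active = AC50 no more than ten times the top concentration tested, that is within one log above it; inconclusive = flat curve fit with activity between 30% and 70%, or invalid poor fit; inactive = AC50 beyond ten times the top tested dose.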

tested on: S. cerevisiae Mot1-301 ts growth rescue, BacTiter-Glo ATP luminescence; assay: growth rescue of Mot1-301 ts yeast, confirmation, SUMOylation pathway inhibitor project, whole organism, S. cerevisiae, Mot1-301 ts mutant, luminescence, dose retest (AID 463204);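 also: growth at restrictive 38.5 degrees C of Mot1-301 OY566 strain; actives raise luminescence by restoring growth of the ts mutant at high temperature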

Q: `CNC(=O)NNC(=O)c1csc(-c2ccc(C(F)(F)F)cc2Cl)n1` was tested. Which AC50 did it give?
A: Its AC50 is > 42 µM (inactive).

Q: For `Cn1c(SCC(=O)Nc2nnc(-c3ccccc3)o2)nnc1C1CC1`, which AC50 is on record?
A: The AC50 was > 42 µM (inactive).

Q: With `COc1ccc(-c2csc(NC(=O)CCS(=O)(=O)c3ccccc3)n2)c(OC)c1` as the molecule, how does the AC50 read?
A: The AC50 was > 42 µM (inactive).

Q: How did the AC50 turn out when `Cc1cc(Oc2cc(NN3CCCCC3)c([N+](=O)[O-])cc2[N+](=O)[O-])ccc1[N+](=O)[O-]` was run?
A: The AC50 was > 42 µM (inactive).

Q: For `CCOc1ccc(C(=O)Nc2ccc(CN3CCOCC3)cc2)cc1Br`, which AC50 is on record?
A: Its AC50 is > 21 µM (inactive).

Q: Which AC50 does the source give for `COc1ccccc1CNC(=O)C1CCC(CNS(=O)(=O)c2ccc(C)cc2)CC1` (configuration not stated) here?
A: Its AC50 is > 42 µM (inactive).

Q: `O=C1CN(C(=O)COC(=O)COc2ccc3c(c2)CCC3)c2ccccc2N1` was tested. Which AC50 did it give?
A: The AC50 was > 42 µM (inactive).

Q: How did the AC50 turn out when `COc1ccc(NC(=O)CN2C(=O)c3ccccc3S2(=O)=O)cc1OC` was run?
A: Its AC50 is > 42 µM (inactive).

Q: For `CC(NC(=O)C1CCCN(S(=O)(=O)N2CCOCC2)C1)c1ccccc1` (configuration not stated), which AC50 is on record?
A: Its AC50 is > 42 µM (inactive).

Q: How did the AC50 turn out when `N#C/C(=C\c1ccc(O)c(O)c1)C(=O)Nc1ccccc1` was run?
A: The AC50 was > 42 µM (inactive).

Q: How did the AC50 turn out when `O=C(CN1c2ccccc2Sc2ccccc21)N/N=C/c1ccc(Cl)cc1Cl` was run?
A: Its AC50 is > 21 µM (inactive).

Q: For `Cc1ccc2c(c1)N(CC(=O)NCC1CCCO1)C(=O)C(C)O2` (configuration not stated), which AC50 is on record?
A: Its AC50 is > 42 µM (inactive).

Q: Which AC50 does the source give for `CCN(CC)C(=O)CSC(Nc1cccc(F)c1)=C(C#N)C#N` here?
A: The AC50 was > 42 µM (inactive).

Q: With `CCOc1cc(NC(=O)c2cccs2)c(OCC)cc1NC(=O)CCC(=O)NCCN1CCOCC1` as the molecule, how does the AC50 read?
A: The AC50 was > 42 µM (inactive).

Q: With `COc1cc(/C=N/NC(=S)NCc2ccco2)cc(OC)c1OC` as the molecule, how does the AC50 read?
A: Its AC50 is > 42 µM (inactive).

Q: For `O=C(O)c1ccc(/C=N/NC(=O)c2cc(-c3ccc4c5c(cccc35)CC4)n[nH]2)cc1`, which AC50 is on record?
A: Its AC50 is > 42 µM (inactive).

Q: For `O=C(Nc1nc2ccccc2s1)c1cccc(S(=O)(=O)N2CCc3ccccc32)c1`, which AC50 is on record?
A: Its AC50 is > 42 µM (inactive).

Q: How did the AC50 turn out when `Cc1cccc(N(Cc2ccccc2)C(=O)CSC(C)C(=O)Nc2cc(C)on2)c1` (configuration not stated) was run?
A: The AC50 was > 42 µM (inactive).

Q: For `O=C(NCc1ccco1)c1ccc(Br)c(S(=O)(=O)N2CCCCC2)c1`, which AC50 is on record?
A: The AC50 was > 42 µM (inactive).

Q: With `CCCOC(=O)c1ccc(O)c(OC)c1` as the molecule, how does the AC50 read?
A: The AC50 was > 42 µM (inactive).

Q: Which AC50 does the source give for `Clc1ccc(N=c2ssnc2Cl)nc1` here?
A: Its AC50 is 0.78 µM.

Q: With `Cn1c(-c2ccc3c(c2)OCO3)cnc1NC(=O)CCC(=O)NCCc1ccccc1` as the molecule, how does the AC50 read?
A: The AC50 was > 42 µM (inactive).

Q: How did the AC50 turn out when `O=C(NCCCn1ccnc1)Nc1cccc2ccccc12` was run?
A: The AC50 was > 42 µM (inactive).

Q: How did the AC50 turn out when `CCN(C(=O)Cn1c(=O)oc2ccccc21)c1cccc(C)c1` was run?
A: The AC50 was > 42 µM (inactive).

Q: How did the AC50 turn out when `COc1ccc(C2CC3(CC(C)(C)NC(=S)N3)Oc3cc(O)cc(C)c32)cc1` (configuration not stated) was run?
A: Its AC50 is > 42 µM (inactive).

Q: With `O=C(Nc1ccc2nc(-c3ccc4nc[nH]c4c3)[nH]c2c1)c1cccs1` as the molecule, how does the AC50 read?
A: The AC50 was > 42 µM (inactive).

Q: Which AC50 does the source give for `O=C1CCCN1CCC(=O)N1CCCC(N2CCN(c3ccccc3F)CC2)C1` (configuration not stated) here?
A: The AC50 was > 42 µM (inactive).

Q: Which AC50 does the source give for `CCOC(=O)N1CCN(S(=O)(=O)c2ccc(C)c(C)c2)CC1` here?
A: Its AC50 is > 42 µM (inactive).

Q: `COc1ccc(NC(=O)c2ccc(COc3ccccc3OC)o2)cc1OC` was tested. Which AC50 did it give?
A: Its AC50 is > 42 µM (inactive).

Q: Which AC50 does the source give for `CC(=O)c1cccc(N2C(=NC(=O)C3CCCCC3)SC3CS(=O)(=O)CC32)c1` (configuration not stated) here?
A: The AC50 was > 42 µM (inactive).

Q: With `CCN(CC)C(=O)CSc1nnc(CNc2ccc(F)cc2)n1Cc1ccco1` as the molecule, how does the AC50 read?
A: Its AC50 is > 42 µM (inactive).

Q: Which AC50 does the source give for `C[C@]12CC[C@H]3C(=CCc4cc(O)ccc43)[C@@H]1CCC2=O` here?
A: Its AC50 is > 42 µM (inactive).

Q: With `O=C1NC(=O)N(Cc2ccccc2)C1=O` as the molecule, how does the AC50 read?
A: The AC50 was > 42 µM (inactive).

Q: With `O=C(COc1ccccc1)Nc1cccc(-c2nnc(-c3ccccc3)o2)c1` as the molecule, how does the AC50 read?
A: The AC50 was > 42 µM (inactive).

Q: For `CCCN(CCC)C(=O)CSc1ncccc1C(=O)O`, which AC50 is on record?
A: Its AC50 is > 42 µM (inactive).

Q: `COC(=O)C1(Cc2ccc(O)cc2)OC(=O)C(O)=C1c1ccc(O)cc1` (configuration not stated) was tested. Which AC50 did it give?
A: The AC50 was > 42 µM (inactive).

Q: With `O=C(O)c1cn(Cc2ccccn2)c(=O)c2ccccc12` as the molecule, how does the AC50 read?
A: Its AC50 is > 42 µM (inactive).

Q: How did the AC50 turn out when `Cn1c(Cn2nnc3ccccc32)nnc1SCC(=O)c1ccc(F)cc1` was run?
A: Its AC50 is > 42 µM (inactive).

Q: For `CCCCCCCCCCOC(=O)Cn1c(COc2ccc(OC)cc2)[n+](C)c2ccccc21`, which AC50 is on record?
A: The AC50 was 6.72 µM.

Q: Which AC50 does the source give for `COc1ccccc1CNC(=O)C(C)Sc1ccc(C)cc1` (configuration not stated) here?
A: The AC50 was > 42 µM (inactive).

Q: With `CN(C)C(=O)CN1C(=O)c2cccc3cccc1c23` as the molecule, how does the AC50 read?
A: The AC50 was > 42 µM (inactive).

Q: With `CCOC(=O)c1ccc(NC(=S)NCCCN2CCOCC2)cc1` as the molecule, how does the AC50 read?
A: The AC50 was > 110 µM (inactive).

Q: How did the AC50 turn out when `CS(=O)(=O)N1CCCC(C(=O)Nc2ccc(F)cc2F)C1` (configuration not stated) was run?
A: Its AC50 is > 42 µM (inactive).

Q: For `O=C(N/N=C/c1ccccn1)NC12CC3CC(CC(C3)C1)C2`, which AC50 is on record?
A: The AC50 was > 42 µM (inactive).

Q: For `CC(NC(=O)C1CCCCC1)C(=O)NC1=NCCS1` (configuration not stated), which AC50 is on record?
A: Its AC50 is > 42 µM (inactive).

Q: Which AC50 does the source give for `CCn1c(SCC(=O)NC2CCCCC2)nnc1C(C)NC(=O)c1ccccc1F` (configuration not stated) here?
A: Its AC50 is > 42 µM (inactive).

Q: Which AC50 does the source give for `COc1ccc(/C=C/C(=O)N2CCC(C(N)=O)CC2)cc1S(=O)(=O)N1CCOCC1` here?
A: Its AC50 is > 42 µM (inactive).

Q: How did the AC50 turn out when `CCCOC(=O)c1c(NC(=O)/C=C/c2cnn(C)c2C)sc(C(=O)OC)c1C` was run?
A: The AC50 was > 42 µM (inactive).

Q: For `O=C(CSc1nc(O)cc(=O)n1-c1ccccc1)NC1CCCCC1`, which AC50 is on record?
A: The AC50 was > 42 µM (inactive).

Q: How did the AC50 turn out when `CCOC(=O)c1c(C)[nH]c2c1cc(O)c1ccccc12` was run?
A: The AC50 was > 42 µM (inactive).

Q: For `CC1(C)CC(=O)C(C(=O)c2ccccc2)C(=O)C1Cl` (configuration not stated), which AC50 is on record?
A: The AC50 was > 42 µM (inactive).

Q: `COc1ccc(Oc2c(C)oc3cc(OC(=O)N(C)C)ccc3c2=O)cc1` was tested. Which AC50 did it give?
A: The AC50 was > 42 µM (inactive).

Q: `NC(=O)c1ccccc1NC(=O)c1ccc2c(c1)OCO2` was tested. Which AC50 did it give?
A: Its AC50 is > 42 µM (inactive).

Q: Which AC50 does the source give for `N=c1sccn1CC(=O)Nc1cccc(S(N)(=O)=O)c1` here?
A: Its AC50 is > 42 µM (inactive).

Q: How did the AC50 turn out when `COC(=O)[C@@H](NC(=O)Nc1ccc(S(N)(=O)=O)cc1)C(C)C` was run?
A: Its AC50 is > 42 µM (inactive).

Q: Which AC50 does the source give for `CCC(C)[C@H](N)c1nnc(SCC(=O)Nc2cccc(Cl)c2)o1` (some centres not stated) here?
A: Its AC50 is > 42 µM (inactive).

Q: `CCCCn1c(N)c(N(CCOC)C(=O)c2ccc(Cl)c(S(=O)(=O)N3CCCCC3)c2)c(=O)[nH]c1=O` was tested. Which AC50 did it give?
A: Its AC50 is > 42 µM (inactive).

Q: For `COc1ccc(C(C)=O)cc1CN(c1ccccc1OC)S(=O)(=O)c1cccs1`, which AC50 is on record?
A: Its AC50 is > 42 µM (inactive).

Q: How did the AC50 turn out when `CCn1c(CSCc2ccc(F)cc2)nnc1SCC(=O)NCc1ccccc1` was run?
A: The AC50 was > 42 µM (inactive).

Q: For `Cc1ccc(-c2[nH]ncc2CNCCc2cnn(-c3ccccc3)c2)cc1C`, which AC50 is on record?
A: Its AC50 is > 42 µM (inactive).

Q: For `S=c1[nH]nc(-c2ccccn2)n1/N=C/c1ccccc1`, which AC50 is on record?
A: The AC50 was > 42 µM (inactive).

Q: For `CCCCC(=O)N/N=C(\C)CC(=O)Nc1cc(Cl)ccc1OC`, which AC50 is on record?
A: The AC50 was > 42 µM (inactive).

Q: For `COc1ccc(C2=C(N)c3ccccc3C2=O)cc1`, which AC50 is on record?
A: The AC50 was > 42 µM (inactive).

Q: For `O=C(OCC(=O)N1CCN(Cc2ccccc2)CC1)c1ccc(Cl)cc1`, which AC50 is on record?
A: The AC50 was > 42 µM (inactive).

Q: How did the AC50 turn out when `CCc1ccc(NC(=O)N2CCC(c3ccccc3)C2)cc1` (configuration not stated) was run?
A: The AC50 was > 42 µM (inactive).

Q: How did the AC50 turn out when `CCCCN(C/C=C/c1ccccc1OC)Cc1ccccc1` was run?
A: Its AC50 is > 42 µM (inactive).

Q: How did the AC50 turn out when `O=C1N=C(N2CCN(c3ccccc3)CC2)SC1Cc1ccccc1` (configuration not stated) was run?
A: Its AC50 is > 42 µM (inactive).

Q: With `C[C@@]12C(=O)Nc3cc(F)ccc3C(=O)N1[C@H]1c3ccccc3OC[C@@H]1[C@@H]2c1ccccc1` as the molecule, how does the AC50 read?
A: The AC50 was 5.7 µM.

Q: Which AC50 does the source give for `CCCCC(=O)NC(=S)Nc1cccc(C(=O)O)c1` here?
A: The AC50 was > 42 µM (inactive).

Q: `CC1(C)CNc2cc([N+](=O)[O-])ccc2S1` was tested. Which AC50 did it give?
A: Its AC50 is 27.7 µM.

Q: For `CC(=O)CSc1ncnc2sc3c(c12)CCCC3`, which AC50 is on record?
A: Its AC50 is > 42 µM (inactive).

Q: Which AC50 does the source give for `O=C(Nc1ccc2[nH]c(=O)[nH]c2c1)c1c(F)c(F)c(F)c(F)c1F` here?
A: Its AC50 is > 42 µM (inactive).
